For one assay, the target named is T1, AtD14-AtMAX2 interaction (Arabidopsis thaliana, UniProt Q9SQR3).
T1 construct: the CDS of ShHTL7 and AtD14 were cloned into yeast expression vector pBrigde; expressed in transfected cells; host or cells: yeast AH109
The assay is described as follows: Yeast two-hybrid assay AtD14-AtMAX2. The conditions noted are these: up to 200 μM. It counts as cell-based. How it is done:
To construct plasmids for yeast two-hybrid assays, the CDS of ShHTL7 and AtD14 were cloned into yeast expression vector pBrigde to generate BD-ShHTL7 and BD-AtD14, and the CDS of ShMAX2, AtMAX2, SMAX1 were cloned into pGADT7 to make Gal4 DNA activation domain (AD) constructs, respectively. Primers used for yeast expression vector construction are listed in Supplementary Table 6. Yeast two-hybrid assays were performed using the Yeastmaker Yeast Transformation System 2 (Clontech). In brief, Yeast AH109 cells were co-transformed with specific bait and prey constructs and coated on selective growth medium SD/-Leu-Trp for 3 days at 30 °C, pick the positive constructs into liquid selective growth medium SD/-Leu-Trp shaking for 36 h at 30 °C. Washed yeast cells three times and diluted, made sure OD600 reached 2.5, then serial 10-fold dilutions of yeast cultures were spotted onto selective growth mediums that were supplemented with different concentrations of rac-GR24 and tested molecules, respectively. All yeast transformants were grown on a selective growth medium at 30 °C for 3 days.

The target in the next assay is ShHTL7 S95C (Striga hermonthica, UniProt A0A0M3PNA2, S95C). The assay is described as follows: YLG competitive inhibition, ShHTL7 mutant S95C. It is filed as biochemical. The source says:
(§1) To clarify the dynamics of how the catalytic triad affects hydrolysis by ShHTL7, we performed MD simulations to study the differences between (R)-4a and (S)-4a (Supplementary Fig. 21). […] To further characterize our computational models, we performed mutation studies of the key residues in the active pockets that may have interactions with our molecules. Indeed, a number of the mutations of specific residues altered the IC50 values, supporting our simulated models (Supplementary Fig. 20b).
(§2) The excitation and emission wavelengths of YLG are 480 and 520 nm, respectively. We used a fluorescence spectrophotometer (CARY Eclipse) to detect the fluorescence intensity change of YLG during the enzymatic hydrolysis assay process. All the testing compounds and YLG were dissolved in DMSO and prepared as stock solutions just before use. […] The changes of fluorescence at 520 nm of each well were recorded every 1 min for 30 min. Using the reaction mixture without adding enzyme and tested compounds as the background control. After subtracting the background hydrolysis, a linear fluorescence increase in 8 min was used for further inspection. The IC50 values were determined via fitting relative inhibition percentages with the varying concentrations of compounds in Microsoft Excel.
(§3) Supplementary Fig. 20. […]

The next assay addresses ShHTL7 T121S (Striga hermonthica, UniProt A0A0M3PNA2, T121S). Nature of the assay: YLG competitive inhibition, ShHTL7 mutant T121S. It counts as biochemical.
From the text: as §1, §2, §3

Another assay has as its target ShHTL7 T124K (Striga hermonthica, UniProt A0A0M3PNA2). Nature of the assay: YLG competitive inhibition, ShHTL7 mutant T124K. It counts as biochemical. Particulars: read-out: IC50 (YLG), ShHTL7 mutant, source data average, Supplementary Fig. 20b.
From the text: as §1, §2, §3

The target in another assay is ShHTL7 T142L (Striga hermonthica, UniProt A0A0M3PNA2, T142L). Nature of the assay: YLG competitive inhibition, ShHTL7 mutant T142L. It counts as biochemical.
From the text: as §1, §2, §3

The target in a further assay is ShHTL7 T142K (Striga hermonthica, UniProt A0A0M3PNA2, T142K). Nature of the assay: YLG competitive inhibition, ShHTL7 mutant T142K. It is filed as biochemical.
From the text: as §1, §2, §3

A further assay addresses ShHTL7 L161M (Striga hermonthica, UniProt A0A0M3PNA2, L161M). Nature of the assay: YLG competitive inhibition, ShHTL7 mutant L161M. It counts as biochemical.
From the text: as §1, §2, §3

The next assay has as its target ShHTL7 T190F (Striga hermonthica, UniProt A0A0M3PNA2, T190F). Nature of the assay: YLG competitive inhibition, ShHTL7 mutant T190F. It is filed as biochemical.
From the text: as §1, §2, §3

In the next assay the target is ShHTL7 T190G (Striga hermonthica, UniProt A0A0M3PNA2, T190G). Nature of the assay: YLG competitive inhibition, ShHTL7 mutant T190G. It is filed as biochemical.
From the text: as §1, §2, §3

The target of the next assay is ShHTL7 M219V (Striga hermonthica, UniProt A0A0M3PNA2, M219V). Nature of the assay: YLG competitive inhibition, ShHTL7 mutant M219V. It is filed as biochemical.
From the text: as §1, §2, §3

Sequence of ShHTL7 T190G (A0A0M3PNA2 whole entry T190G): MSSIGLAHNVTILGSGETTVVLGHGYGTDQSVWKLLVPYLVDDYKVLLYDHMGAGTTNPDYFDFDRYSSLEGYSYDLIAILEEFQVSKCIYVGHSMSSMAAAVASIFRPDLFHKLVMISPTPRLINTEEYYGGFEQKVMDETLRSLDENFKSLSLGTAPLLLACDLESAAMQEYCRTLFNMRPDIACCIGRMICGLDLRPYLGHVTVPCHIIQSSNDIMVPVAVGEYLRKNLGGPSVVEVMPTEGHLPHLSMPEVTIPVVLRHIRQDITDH
Sequence of ShHTL7 T142L (A0A0M3PNA2 whole entry T142L): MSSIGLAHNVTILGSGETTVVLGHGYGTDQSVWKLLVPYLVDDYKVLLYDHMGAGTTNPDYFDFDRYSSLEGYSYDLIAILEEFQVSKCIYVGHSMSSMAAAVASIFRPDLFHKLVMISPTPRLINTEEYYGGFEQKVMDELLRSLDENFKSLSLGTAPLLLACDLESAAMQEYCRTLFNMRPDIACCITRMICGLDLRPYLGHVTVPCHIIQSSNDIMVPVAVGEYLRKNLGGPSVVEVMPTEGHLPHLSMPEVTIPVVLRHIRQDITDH
Sequence of ShHTL7 T124K (A0A0M3PNA2 entry or part of it, stated change not applied): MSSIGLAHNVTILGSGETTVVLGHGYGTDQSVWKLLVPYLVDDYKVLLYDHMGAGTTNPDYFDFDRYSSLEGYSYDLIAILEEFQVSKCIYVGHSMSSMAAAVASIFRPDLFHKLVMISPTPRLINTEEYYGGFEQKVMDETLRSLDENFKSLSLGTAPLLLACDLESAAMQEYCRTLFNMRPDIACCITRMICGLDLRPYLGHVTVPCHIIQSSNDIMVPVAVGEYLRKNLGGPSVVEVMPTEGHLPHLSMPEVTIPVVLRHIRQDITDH
Sequence of ShHTL7 T190F (A0A0M3PNA2 whole entry T190F): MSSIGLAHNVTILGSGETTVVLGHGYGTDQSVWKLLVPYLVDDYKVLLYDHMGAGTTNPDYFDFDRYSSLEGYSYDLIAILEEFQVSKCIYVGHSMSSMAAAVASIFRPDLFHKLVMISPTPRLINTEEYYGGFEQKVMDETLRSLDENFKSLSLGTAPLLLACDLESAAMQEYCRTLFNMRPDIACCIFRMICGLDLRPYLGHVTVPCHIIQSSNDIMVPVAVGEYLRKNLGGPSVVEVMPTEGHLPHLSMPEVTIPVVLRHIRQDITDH
Sequence of ShHTL7 T121S (A0A0M3PNA2 whole entry T121S): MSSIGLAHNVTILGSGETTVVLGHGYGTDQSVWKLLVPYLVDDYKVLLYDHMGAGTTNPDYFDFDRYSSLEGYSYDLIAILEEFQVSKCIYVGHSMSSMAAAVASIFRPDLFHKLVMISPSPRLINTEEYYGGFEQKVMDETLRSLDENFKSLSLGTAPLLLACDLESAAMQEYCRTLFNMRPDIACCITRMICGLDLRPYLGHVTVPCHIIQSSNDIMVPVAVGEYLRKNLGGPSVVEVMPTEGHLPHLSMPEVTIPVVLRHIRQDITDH
Sequence of ShHTL7 T142K (A0A0M3PNA2 whole entry T142K): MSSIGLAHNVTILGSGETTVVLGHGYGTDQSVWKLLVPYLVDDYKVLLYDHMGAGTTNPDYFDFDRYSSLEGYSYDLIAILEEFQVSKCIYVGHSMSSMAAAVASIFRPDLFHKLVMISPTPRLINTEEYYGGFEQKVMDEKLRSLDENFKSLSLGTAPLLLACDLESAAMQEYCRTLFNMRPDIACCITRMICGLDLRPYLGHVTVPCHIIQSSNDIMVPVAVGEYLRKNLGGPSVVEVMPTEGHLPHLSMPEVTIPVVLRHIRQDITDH
Sequence of ShHTL7 L161M (A0A0M3PNA2 whole entry L161M): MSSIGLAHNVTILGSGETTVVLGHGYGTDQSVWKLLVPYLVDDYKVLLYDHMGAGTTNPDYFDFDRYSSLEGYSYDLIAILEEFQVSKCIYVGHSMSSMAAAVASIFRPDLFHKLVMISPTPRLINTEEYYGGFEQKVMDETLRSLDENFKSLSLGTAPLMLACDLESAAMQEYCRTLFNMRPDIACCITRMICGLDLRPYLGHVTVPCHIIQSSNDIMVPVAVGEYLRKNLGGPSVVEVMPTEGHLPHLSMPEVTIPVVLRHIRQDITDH
Sequence of ShHTL7 M219V (A0A0M3PNA2 whole entry M219V): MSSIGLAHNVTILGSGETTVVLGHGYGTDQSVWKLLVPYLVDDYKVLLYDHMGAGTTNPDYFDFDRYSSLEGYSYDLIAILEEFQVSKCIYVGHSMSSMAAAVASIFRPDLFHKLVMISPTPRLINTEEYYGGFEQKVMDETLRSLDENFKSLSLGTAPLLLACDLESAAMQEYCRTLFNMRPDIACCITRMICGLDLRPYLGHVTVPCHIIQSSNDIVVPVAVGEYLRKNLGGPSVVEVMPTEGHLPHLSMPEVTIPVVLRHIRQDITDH
Sequence of ShHTL7 S95C (A0A0M3PNA2 whole entry S95C): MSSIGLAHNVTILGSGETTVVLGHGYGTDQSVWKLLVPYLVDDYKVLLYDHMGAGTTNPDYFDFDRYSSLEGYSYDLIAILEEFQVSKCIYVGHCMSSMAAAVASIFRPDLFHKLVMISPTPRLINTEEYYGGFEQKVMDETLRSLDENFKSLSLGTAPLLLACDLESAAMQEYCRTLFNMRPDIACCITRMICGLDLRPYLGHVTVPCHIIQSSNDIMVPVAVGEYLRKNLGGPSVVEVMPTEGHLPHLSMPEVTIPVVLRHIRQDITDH
T1 sequence (Q9SQR3 whole entry): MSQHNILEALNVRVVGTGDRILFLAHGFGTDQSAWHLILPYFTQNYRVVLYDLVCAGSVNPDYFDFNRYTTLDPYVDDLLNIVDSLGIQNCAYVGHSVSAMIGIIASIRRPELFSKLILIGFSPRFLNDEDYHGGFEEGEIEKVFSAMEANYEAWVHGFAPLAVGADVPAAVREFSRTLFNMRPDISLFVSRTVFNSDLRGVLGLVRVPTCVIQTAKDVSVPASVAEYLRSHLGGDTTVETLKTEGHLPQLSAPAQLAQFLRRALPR

As to `CC1=CC(OC(=O)N2CCN(C(=O)COc3ccc(Br)cc3C)CC2)OC1=O` (stereo not shown) [4a], the “induction of AtD14-AtMAX2 interaction (Y2H)” value on AtD14-AtMAX2 interaction was “did not promote the interaction”.
As for `CC1=C[C@@H](OC(=O)N2CCN(C(=O)COc3ccc(Br)cc3C)CC2)OC1=O` [(R)-4a], the IC50 came out at 43700 nM at ShHTL7 S95C; 4900 nM at ShHTL7 T121S; 1000 nM on ShHTL7 T124K; 1880 nM on ShHTL7 T142L; 4130 nM at ShHTL7 T142K; 34300 nM at ShHTL7 L161M. The IC50 on ShHTL7 T190F came to 4690 nM; at ShHTL7 T190G, 26400 nM; on ShHTL7 M219V, 22000 nM.
With `CC1=C[C@H](OC(=O)N2CCN(C(=O)COc3ccc(Br)cc3C)CC2)OC1=O` [(S)-4a], the IC50 is 293 nM at ShHTL7 S95C; 800 nM at ShHTL7 T121S; 435 nM on ShHTL7 T124K; 300 nM at ShHTL7 T142L; 203 nM at ShHTL7 T142K; 666 nM at ShHTL7 L161M. Moreover, the IC50 was determined as 1070 nM at ShHTL7 T190F, 575 nM on ShHTL7 T190G and 347 nM at ShHTL7 M219V.

A word on the IC50: it is the concentration that inhibits the measured activity by half.
